According to the supplement of paper PMC8149375:

What was measured:
Conditions in all cases: treatment: drug + dasatinib (fixed dose, not stated); 5 days
UO-31 [1] = assay: GI50 of drug in presence of dasatinib; higher = less potent
Method: (§1)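 Primary HTS combination arm: 8 RCC cell lines treated with 8 doses (up to 10 uM) of each library drug plus a fixed dose of dasatinib (dose not stated) for 5 days; viability read by CellTiter-Glo and normalised to DMSO. GI50 was fitted with XLfit, AUC is the area under the dose-response curve, and minimum viability is the lowest fraction of DMSO viability across doses.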

A498 [2] = assay: as above
Method: as §1

CAKI-1 [3] = assay: as above
Method: as §1

ACHN [4] = assay: as above
Method: as §1

769-P [5] = assay: as above
Method: as §1

786-O [6] = assay: as above
Method: as §1

TK-10 [7] = assay: as above
Method: as §1

SN12C [8] = assay: as above
Method: as §1

UO-31 [9] = assay: minimum viability across doses, drug + dasatinib, relative to DMSO (fraction); higher = less growth inhibition
Method: as §1

A498 [10] = assay: as above
Method: as §1

CAKI-1 [11] = assay: as above
Method: as §1

ACHN [12] = assay: as above
Method: as §1

769-P [13] = assay: as above
Method: as §1

786-O [14] = assay: as above
Method: as §1

TK-10 [15] = assay: as above
Method: as §1

SN12C [16] = assay: as above
Method: as §1

UO-31 [17] = assay: AUC of dose-response viability curve, drug + dasatinib, normalised to DMSO (arbitrary (AUC of normalised viability)); higher = less growth inhibition
Method: as §1

A498 [18] = assay: as above
Method: as §1

CAKI-1 [19] = assay: as above
Method: as §1

ACHN [20] = assay: as above
Method: as §1

769-P [21] = assay: as above
Method: as §1

786-O [22] = assay: as above
Method: as §1

TK-10 [23] = assay: as above
Method: as §1

SN12C [24] = assay: as above
Method: as §1

SMILES | GI50 of drug (UO-31 [1]) | GI50 of drug (A498 [2]) | GI50 of drug (CAKI-1 [3]) | GI50 of drug (ACHN [4]) | GI50 of drug (769-P [5]) | GI50 of drug (786-O [6]) | GI50 of drug (TK-10 [7]) | GI50 of drug (SN12C [8]) | minimum viability across doses (UO-31 [9]) | minimum viability across doses (A498 [10]) | minimum viability across doses (CAKI-1 [11]) | minimum viability across doses (ACHN [12]) | minimum viability across doses (769-P [13]) | minimum viability across doses (786-O [14]) | minimum viability across doses (TK-10 [15]) | minimum viability across doses (SN12C [16]) | AUC of dose-response viability curve (UO-31 [17]) | AUC of dose-response viability curve (A498 [18]) | AUC of dose-response viability curve (CAKI-1 [19]) | AUC of dose-response viability curve (ACHN [20]) | AUC of dose-response viability curve (769-P [21]) | AUC of dose-response viability curve (786-O [22]) | AUC of dose-response viability curve (TK-10 [23]) | AUC of dose-response viability curve (SN12C [24])
Nc1nc(NCCNc2ncc(-n3ccnc3)c(-c3ccc(Cl)cc3Cl)n2)ccc1[N+](=O)[O-] + Cc1nc(Nc2ncc(C(=O)Nc3c(C)cccc3Cl)s2)cc(N2CCN(CCO)CC2)n1 [dasatinib] | 1600 nM | 9.9 µM | 1230 nM | 1830 nM | 1540 nM | 552 nM | 1590 nM | 7550 nM | 0.0119 | 0.474 | 0.0567 | 0.0281 | 0.0308 | 0.00601 | 0.0534 | 0.268 | 3.5 | 3.68 | 2 | 1.88 | 2.13 | 1.93 | 2.25 | 2.28
C#Cc1cccc(Nc2ncnc3cc(OCCOC)c(OCCO)cc23)c1 + Cc1nc(Nc2ncc(C(=O)Nc3c(C)cccc3Cl)s2)cc(N2CCN(CCO)CC2)n1 [dasatinib] | 9830 nM | > 10 µM | 1010 nM | 3.94 nM | 760 nM | > 10000 nM | 1300 nM | > 10000 nM | 0.439 | 0.973 | 0.125 | 0.108 | 0.301 | 0.489 | 0.323 | 0.415 | 4.6 | 3.63 | 2.09 | 1.13 | 2.11 | 2.72 | 2.1 | 2.43
COCCOc1ccc2c(c1)ncn2-c1ccc2cccc(N3CCC(N)CC3)c2n1 + Cc1nc(Nc2ncc(C(=O)Nc3c(C)cccc3Cl)s2)cc(N2CCN(CCO)CC2)n1 [dasatinib] | 2910 nM | 3.2 µM | 471 nM | 85.4 nM | 1880 nM | 683 nM | 1810 nM | 1690 nM | 0.0088 | 0.0463 | 0.2 | 0.0189 | 0.123 | 0.00646 | 0.261 | 0.041 | 3.4 | 2.84 | 1.85 | 1.73 | 2.23 | 1.86 | 2.2 | 2.36
CC1(COc2ccc3c(c2)ncn3-c2ccc3cccc(N4CCC(N)CC4)c3n2)COC1 + Cc1nc(Nc2ncc(C(=O)Nc3c(C)cccc3Cl)s2)cc(N2CCN(CCO)CC2)n1 [dasatinib] | 2230 nM | 2.54 µM | 928 nM | 1920 nM | 1710 nM | 102 nM | 3330 nM | 1280 nM | 0.0108 | 0.0198 | 0.192 | 0.0128 | 0.222 | 0.00575 | 0.181 | 0.0349 | 2.77 | 2.83 | 1.9 | 1.96 | 1.8 | 1.64 | 2.42 | 2.14
Cn1cc(C2=C(c3cn(C4CCN(Cc5ccccn5)CC4)c4ccccc34)C(=O)NC2=O)c2ccccc21 + Cc1nc(Nc2ncc(C(=O)Nc3c(C)cccc3Cl)s2)cc(N2CCN(CCO)CC2)n1 [dasatinib] | 6320 nM | > 10 µM | > 10000 nM | > 10000 nM | > 10000 nM | > 10000 nM | > 10000 nM | > 10000 nM | 0.341 | 0.817 | 0.585 | 0.566 | 0.571 | 0.636 | 0.667 | 0.62 | 3.35 | 3.04 | 2.2 | 2.28 | 2.27 | 2.71 | 2.85 | 2.38
CCc1cnn2c(NCc3ccc[n+]([O-])c3)cc(N3CCCC[C@H]3CCO)nc12 + Cc1nc(Nc2ncc(C(=O)Nc3c(C)cccc3Cl)s2)cc(N2CCN(CCO)CC2)n1 [dasatinib] | 15.1 nM | 0.0119 µM | 7.08 nM | 3.94 nM | 16.7 nM | 3.6 nM | 14.1 nM | 11.5 nM | 0.0088 | 0.00891 | 0.0412 | 0.00901 | 0.0174 | 0.00583 | 0.169 | 0.0087 | 0.771 | 0.592 | 0.562 | 0.506 | 0.787 | 0.357 | 1.11 | 0.562
Cc1nc(Nc2ncc(C(=O)Nc3c(C)cccc3Cl)s2)cc(N2CCN(CCO)CC2)n1 + Cc1nc(Nc2ncc(C(=O)Nc3c(C)cccc3Cl)s2)cc(N2CCN(CCO)CC2)n1 [dasatinib] | 65.6 nM | 8.46 µM | 23.6 nM | 26.3 nM | 38.2 nM | 158 nM | 18.8 nM | 2300 nM | 0.0492 | 0.413 | 0.0256 | 0.0702 | 0.0465 | 0.0726 | 0.0619 | 0.422 | 1.44 | 2.62 | 1.03 | 1.18 | 1.22 | 1.71 | 1.04 | 2.21
